Reference: the NIST ThermoML archive (doi:10.1021/acs.jced.6b00862)
± gives the expanded uncertainty stated by the source.

Assay: wn = mass fraction of the nth substance listed
Details: 298 K, 100 kPa, Liquid, Alternating current cell with electrodes

- electrical conductivity (w1 = 0.0105): 0.0194 ± 0.00039 S/m
- electrical conductivity (w1 = 0.021): 0.0262 ± 0.00052 S/m
- electrical conductivity (w1 = 0.0315): 0.0318 ± 0.00064 S/m
- electrical conductivity (w1 = 0.0419): 0.0346 ± 0.00069 S/m
- electrical conductivity (w1 = 0.0523): 0.0373 ± 0.00075 S/m
Compound: OCCNCCO [diethanolamine] + O
